Reference: patent US20140141974A1, “Fungicidal phenylalkyl-substituted 2-[2-chloro-4-(4-chloro-phenoxy)-phenyl]-1-[1,2,4]triazol-1-yl-ethanol compounds” (BASF SE, priority 2011, published 2014)

Key:
[1] = tested on: Phakopsora pachyrhizi; assay: Protective control of soy bean rust on soy beans (Use Example 4, greenhouse comparative test); format: in vivo; settings: soy bean seedlings, inoculated 1 day after spraying, untreated control 80
Protocol: The spray solutions were prepared in several steps:
The stock solutions were prepared: a mixture of acetone and/or dimethylsulfoxide and the wetting agent/emulsifier Wettol, which is based on ethoxylated alkylphenoles, in a relation (volume) solvent-emulsifier of 99 to 1 was added to 25 mg of the compound to give a total of 5 ml. Water was then added to total volume of 100 ml.
This stock solution was diluted with the described solvent-emulsifier-water mixture to the given concentration.
Leaves of pot-grown soy bean seedlings were sprayed to run-off with an aqueous suspension, containing the concentration of active ingredient or their mixture as described below. The plants were allowed to air-dry. The trial plants were cultivated for 1 day in a greenhouse chamber at 23-27° C. and a relative humidity between 60 and 80%. Then the plants were inoculated with spores of Phakopsora pachyrhizi. To ensure the success the artificial inoculation, the plants were transferred to a humid chamber with a relative humidity of about 95% and 20 to 24° C. for 24 h. The trial plants were cultivated for fourteen days in a greenhouse chamber at 23-27° C. and a relative humidity between 60 and 80%. The extent of fungal attack on the leaves was visually assessed as % diseased leaf area.

[2] = tested on: Puccinia recondita (Puccrt K4); assay: Curative control of brown rust on wheat (Use Example 5, greenhouse comparative test); format: in vivo; settings: wheat seedlings, sprayed after inoculation, untreated control 90
Protocol: The spray solutions were prepared in several steps: The stock solutions were prepared: a mixture of acetone and/or dimethylsulfoxide and the wetting agent/emulsifier Wettol, which is based on ethoxylated alkylphenoles, in a relation (volume) solvent-emulsifier of 99 to 1 was added to 25 mg of the compound to give a total of 5 ml. Water was then added to total volume of 100 ml. This stock solution was diluted with the described solvent-emulsifier-water mixture to the given concentration. The first two developed leaves of pot-grown wheat seedling were dusted with spores of Puccinia recondita. To ensure the success the artificial inoculation, the plants were transferred to a humid chamber without light and a relative humidity of 95 to 99% and 20 to 24° C. for 24 h. The next day the plants were cultivated for 3 days in a greenhouse chamber at 20-24° C. and a relative humidity between 65 and 70%. Then the plants were sprayed to run-off with an aqueous suspension, containing the concentration of active ingredient or their mixture as described below. The plants were allowed to air-dry. Then the trial plants were cultivated for 8 days in a greenhouse chamber at 20-24° C. and a relative humidity between 65 and 70%. The extent of fungal attack on the leaves was visually assessed as % diseased leaf area.

SMILES	Disease (%) at 150 ppm [1] [%]	Disease (%) at 63 ppm [2] [%]
OC(Cn1cncn1)(c1ccccc1)c1ccc(Oc2ccc(Cl)cc2)cc1Cl (stereo not drawn) [Compound I-1]	1	
OC(Cc1ccccc1)(Cn1cncn1)c1ccc(Oc2ccc(Cl)cc2)cc1Cl (stereo not drawn) [Compound I-2, 2-[2-chloro-4-(4-chloro-phenoxy)-phenyl]-1-phenyl-3-[1,2,4]triazol-1-yl-propan-2-ol]	3	35
OC(C#Cc1ccccc1)(Cn1cncn1)c1ccc(Oc2ccc(Cl)cc2)cc1Cl (stereo not drawn) [Compound I-4]		20
OC(/C=C/c1ccccc1)(Cn1cncn1)c1ccc(Oc2ccc(Cl)cc2)cc1Cl (stereo not drawn) [Compound V20, reference compound]	50	55
